Series [1] concerns Male mice of the ddY strain. As to the kind of experiment: Anti-hypoxic activity: brain protection against complete ischemia by decapitation (gasping persistent time). It counts as in vivo. The settings on record: decapitated one hour later, control group taken as 100 %, mean ± standard error. How it is done: Male mice of the ddY strain (body weight 20-25g, 5 per group) were orally given the compound of the invention (dihydrochloride) dissolved in 1% gum arabic solution. One hour later, the mice were decapitated, and the time elapsed until a gasping-like mouth opening movement appearing after decapitation ceased (gasping persistent time) was measured, and compared with that obtained with the control group (the group to which 1% gum arabic solution was administered).

Series [2] concerns Male mice of the ddY strain. As to the kind of experiment: Anti-hypoxic activity: brain protection against normobaric hypoxia (survival time in 100% nitrogen). It counts as in vivo. Particulars: one hour before 100% nitrogen, control group taken as 100 %, mean ± standard error, p<0.01. How it is done: Male mice of the ddY strain (body weight 20-25g, 5 per group) were orally administered with the compound of the invention (dihydrochloride) dissolved in a 1% gum arabic solution. One hour after the administration, the mouse was put in a transparent plastic container (capacity 27 liters) through which 100% nitrogen was passed at a rate of 80 liters/min. The time elapsed until the animal died (the survival time) was measured, and compared with that obtained with the control group (the group to which 1% gum arabic solution was administered).

The test system of the next series is brain homogenate. As to the kind of experiment: Lipid peroxide formation inhibiting activity (antioxidant activity), MDA formed by autoxidation. Type of series: biochemical, Rats. Particulars: for Antioxidant activity (n=4) Mean ± standard error (%): percent inhibition of autoxidation on the brain homogenate, 37 °C, 30 minutes. How it is done: The effect of the test compound on the formation of lipid peroxide by autoxidation was determined by the amount of malondialdehyde (MDA) formed.
Rats were decapitated, and the cerebrum was taken out and homogenized with 4 ml, per gram of the cerebrum, of 50 mM phosphate saline-buffer (pH 7.4) and centrifuged (2800 rpm, 10 minutes). The supernatant was taken into a 10 ml test tube to obtain a brain homogenate. It was frozen at -70 °C and stored.
The brain homogenate was defrozen, and immediately then, diluted to 10-fold with the aforesaid phosphate saline-buffer. A 2 ml portion of the dilution was taken into a 10 ml test tube cooled with ice, and used to measure its antioxidant activity. Twenty microliters of an aqueous solution of the compound of this invention (dihydrochloride) was added. The amount of MDA immediately after the addition was measured as shown below (MDA 0 time). The mixture was incubated at 37 °C for 30 minutes. The reaction was stopped by adding 400 microliters of 35% perchloric acid solution. After cooling with ice, the cooled mixture was centrifuged (2800 rpm, 10 minutes). To 1 ml of the supernatant, 0.5 ml of 0.5 % thiobarbituric acid solution dissolved in 50% acetic acid solution was added, and the mixture was heated at 100 °C for 15 minutes. After cooling with ice, the absorbance of the solution at 532 nm was measured, and the amount of MDA formed was determined (MDAtest).
As a control, the amount of MDA (MDAcont) was determined as above.
The antioxidant activity of the compound of the invention was expressed in terms of percent inhibition of autoxidation on the brain homogenate. The calculation was based on the following equation. [formula]

A short description of series [3]: Acute toxicity (LD50 by the Weil method). Particulars: male, ddY, mouse, in vivo, dead animals counted one week later, read-out: LD₅₀. How it is done: Male ddY mice (body weight 20 - 26 g, 5 per group) were allowed to fast overnight. The compound of this invention (dihydrochloride) dissolved in distilled water was orally (p.o.) administered. From the number of dead animals counted one week later, the LD₅₀ (p.o.) was calculated by the Weil method.
Then, the compound of this invention (dihydrochloride) was dissolved in saline and intraperitoneally (i.p.) administered to the mice, and the LD₅₀ value (i.p.) was measured similarly.

Series [4] concerns Male mice of the ddY strain. As to the kind of experiment: Anti-scopolamine-induced amnesia activity (one-trial passive avoidance response). The settings on record: scopolamine hydrobromide 1 mg/kg i.p.; for Mean latency (seconds): p<0.01. It counts as in vivo. As for the experimental part: Male mice of the ddY strain (body weight 20-25g, 20 per group) were used, and the activity of the test compound on deficit of memory induced by scopolamine hydrobromide (a muscarinic acetylcholine receptor antagonist) was examined using one-trial passive avoidance response as an index. Using the same experimental device as in Test Example 1, the same acquisition trial and retrieval trial as in Test Example 1 were carried out (one-trial passive avoidanse response). Scopolamine hydrobromide (1 mg/kg) was intra peritoneally (i.p.) administered to the animals 20 minutes before the acquisition trial. The compound of the invention (dihydrochloride) was dissolved in 1 % gum arabic solution, and intraperitoneally administered immediately after the acquisition trial, and orally (p.o.) administered 60 minutes before the acquisition trial. A 1% solution of gum arabic was administered to the control group.

The subject of series [5] is Male mice of the ddY strain. As to the kind of experiment: Anti-CO2-induced amnesia activity (one-trial passive avoidance response). Type of series: in vivo. Particulars: retrieval 24 hours later, max 300 seconds. As for the experimental part:
Male mice of the ddY strain (body weight 20 - -30 g, 30 per group) were used. Anti-CO₂-induced amnesia activity was determined by using one-trial passive avoidance response as an index. The experimental device consisted of two compartments, one illuminated and the other dark, with a guillotine door in the boundary of the two compartments permitting free passage of the mice through it. In an acquisition trial, a mouse was placed in the illuminated compartment and allowed to enter the dark one. As soon as the mouse entered the dark compartment, the door was shut, and an electrical shock (0.5 mA, 0.2 sec.) was applied through the grid floor. Thus, the mouse was caused to learn that it receives an electric shock upon entering the dark room. In a retrieval trial, the mouse was again placed in the illuminated compartment 24 hours after the acquisition trial, and the time elapsed until it entered the dark compartment (response latency) was measured to an extent of 300 seconds at the longest. (One-trial passive avoidance response) Treatment of inducing amnesia by carbon dioxide was performed by putting the mouse in a 1.6-liter plastic container having a gas intake opening and an gas discharging opening immediately after the acquisition trial, and passing 100% carbon dioxide gas for 14 seconds at a flow rate of 8 liters/min. […]

The values below come from patent publication EP0302967A2, “Quinazoline derivative, processes for its production, and cerebral dysfunction remedying agent comprising it as active ingredient” (priority 1987, dated 1989).

Molecules are shown by their SMILES. Read-outs that look alike come from different tables or passages of the source. Marks after values point to notes of the source that are not given here.

As for `C=CCN1CCN(c2nc(OCCCCC)c3ccccc3n2)CC1.Cl.Cl` [Compound of the invention (2HCl), 2-(4-allyl-1-piperazinyl)-4-pentyloxyquinazoline dihydrochloride], the “Mean gasping persistent time (%)” value is on record as 107 ± 6% in series [1] (10 mg/kg orally); 139 ± 6 ** 2) % in series [1] (30 mg/kg orally, p<0.01); 187 ± 8 % in series [1] (100 mg/kg orally, p<0.01). Also, the “Survival time (%)” value in series [2] (10 mg/kg orally) is 122 ± 5 [1)**2)] %; in series [2] (30 mg/kg orally) it was 151 ± 7 %. Also, the “Antioxidant activity (n=4) Mean ± standard error (%)” value worked out at 6.4 ± 7.7% with brain homogenate (10 µM), 27.1 ± 6.8% in the series with brain homogenate (30 µM), 77.9 ± 3.1% in the series with brain homogenate (100 µM) and 93.4 ± 2.2% in the series on brain homogenate (300 µM). Further, the IC50 in the series with brain homogenate (inhibition of autoxidation (MDA formation) on the brain homogenate, read-out: 50% inhibition concentration (IC₅₀)) stood at 52 µM. Also, the LD50 at 1 week in series [3] (ip, in saline) came out at 220 mg/kg; in series [3] (po, in distilled water, fasted overnight) it was 1270 mg/kg. Moreover, the “Mean latency (seconds)” value is given as 190.4 **2) seconds in series [4] (3 mg/kg (as free base) i.p. immediately after acquisition trial, control group 92.0); 185.1 ** seconds in series [4] (10 mg/kg (as free base) i.p. immediately after acquisition trial, control group 92.0); 208.7 ** seconds in series [4] (30 mg/kg (as free base) i.p. immediately after acquisition trial, control group 92.0); 144.6 ** seconds in series [4] (30 mg/kg (as free base) p.o. 60 minutes before acquisition trial, control group 63.1); 230.0**1) seconds in series [5] (30 mg/kg orally 60 minutes before acquisition trial, control group 155.3, p<0.01). Moreover, the “Mean latency” value came to 59.8 s in series [4] (10 mg/kg (as free base) p.o. 60 minutes before acquisition trial, control group 63.1) and 185.8 s in series [5] (10 mg/kg orally 60 minutes before acquisition trial, control group 155.3).
